Drawing on PubChem BioAssay (NCI), this text covers TGI and GI50 for eleven compounds.

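Cells were grown in 96-well plates and exposed to each compound for 48 hours at five concentrations; endpoints were interpolated linearly between bracketing concentrations, or set to the highest concentration if not reached. Here, GI50 denotes the concentration required for 50% inhibition of growth. The concentration for full growth arrest is given as TGI.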

Test systems include A549 NSCLC; HCT-15 colon; HL-60(TB) leukemia; HOP-62 NSCLC; KM12 colon; NCI-H460 lung; SK-MEL-28 melanoma; SK-OV-3 ovarian; A498 renal; SF-539 CNS.
Holding throughout (experiment): NCI-60 cell line screen, 48 h

`COc1ccc2c(c1O)[C@@]13C=C(O)C(=O)C=C1[C@@H](C2)N(C)CC3`: the TGI in the assay on A549 NSCLC, in the assay with HCT-15 colon, in the assay on HL-60(TB) leukemia, with HOP-62 NSCLC, with KM12 colon and in the assay on NCI-H460 lung was more than 100 µM each time. In addition, the TGI with SK-MEL-28 melanoma and in the assay with SK-OV-3 ovarian was more than 100 µM each time.

In the case of `O=C(/C=C/N1CCN(c2cccc(C(F)(F)F)c2)CC1)c1ccc(Cl)cc1Cl`, the GI50 in the assay with A498 renal was 21.6 µM; in the assay with A549 NSCLC it was 39.8 µM; with HCT-15 colon it was 26.8 µM; in the assay with HOP-62 NSCLC, 19 µM; with KM12 colon it was 28.1 µM; in the assay with NCI-H460 lung, 30.9 µM. Moreover, the GI50 is 24.8 µM in the assay on SF-539 CNS, 21.1 µM with SK-MEL-28 melanoma and 36.2 µM with SK-OV-3 ovarian. The TGI with A498 renal was 38.8 µM; in the assay on A549 NSCLC it was more than 100 µM; with HCT-15 colon, 53.9 µM; with HOP-62 NSCLC it was 35.4 µM; with KM12 colon, 75.9 µM; in the assay with NCI-H460 lung, 97.3 µM. For the same compound, the TGI in the assay on SF-539 CNS was determined as 51.3 µM; with SK-MEL-28 melanoma it was 43.9 µM; in the assay with SK-OV-3 ovarian it was 98.2 µM.

Take `CC(=O)[CH-]C(=O)c1ccccc1.CC(=O)[CH-]C(=O)c1ccccc1.[O]=[U+2]=[O]`: the GI50 in the assay with A498 renal was 28.7 µM; in the assay on A549 NSCLC, 31 µM; in the assay with HCT-15 colon it was 35.1 µM; in the assay on HL-60(TB) leukemia, 29.6 µM; in the assay on HOP-62 NSCLC, 23.8 µM; in the assay on KM12 colon, 3.67 µM. The figures for the GI50 in the assay with NCI-H460 lung, with SK-MEL-28 melanoma and in the assay with SK-OV-3 ovarian were 36.9 µM, 36.2 µM and 68.5 µM, respectively. The TGI in the assay on A498 renal is 96.9 µM; in the assay with A549 NSCLC, more than 100 µM; in the assay with HCT-15 colon, more than 100 µM; with HL-60(TB) leukemia, 80.3 µM; with HOP-62 NSCLC, 66.2 µM; in the assay with KM12 colon, 9.83 µM. Further, the TGI in the assay with NCI-H460 lung, in the assay on SK-MEL-28 melanoma and in the assay with SK-OV-3 ovarian was more than 100 µM in each case.

As to `CN1CCCC1c1cccnc1.O=C(O)c1ccccc1O.O=C([O-])c1ccccc1[OH2+].O=C([O-])c1ccccc1[OH2+].O=C([O-])c1ccccc1[OH2+].[Mn+2]` (stereo unspecified), the GI50 in the assay with A498 renal, in the assay with A549 NSCLC, in the assay with HCT-15 colon, in the assay on HL-60(TB) leukemia, in the assay on HOP-62 NSCLC and in the assay on KM12 colon was more than 100 µM throughout. Further, the GI50 in the assay with SK-MEL-28 melanoma and with SK-OV-3 ovarian was more than 100 µM in each case. Also, the TGI in the assay with A498 renal, in the assay with A549 NSCLC, in the assay with HCT-15 colon, in the assay on HL-60(TB) leukemia, in the assay with HOP-62 NSCLC and in the assay with KM12 colon was more than 100 µM in each case. For the same compound, the TGI with SK-MEL-28 melanoma and with SK-OV-3 ovarian was more than 100 µM each time.

On to `CC(C)c1ccc(/C=C(\NC(=O)c2ccccc2)c2nc3ccccc3[nH]2)cc1`, for which the TGI is more than 100 µM in the assay with A498 renal; 82.5 µM in the assay on A549 NSCLC; more than 100 µM in the assay with HCT-15 colon; more than 100 µM in the assay on KM12 colon; more than 100 µM in the assay with NCI-H460 lung; more than 100 µM with SF-539 CNS. The compound further came in with a TGI with SK-OV-3 ovarian of more than 100 µM.

As for `COC(=O)/C(C#N)=C1\N=NNN1CCCN1CCOCC1`, the TGI in the assay with A498 renal, in the assay with A549 NSCLC, in the assay on HCT-15 colon, in the assay with KM12 colon, with NCI-H460 lung and in the assay on SF-539 CNS was more than 100 µM in each case. Further, the TGI with SK-MEL-28 melanoma and in the assay on SK-OV-3 ovarian was more than 100 µM in each case.

In the case of `Cc1nnc([S-])s1.[Au+].c1ccc([PH+](c2ccccc2)c2ccccc2)cc1`, the GI50 is 1.85 µM in the assay with HL-60(TB) leukemia, 1.83 µM in the assay on KM12 colon, 1.63 µM in the assay with SF-539 CNS and 1.57 µM with SK-MEL-28 melanoma. The TGI in the assay with HL-60(TB) leukemia turned out to be 5.51 µM; in the assay with KM12 colon it was 3.41 µM; in the assay on SF-539 CNS it was 3 µM; in the assay with SK-MEL-28 melanoma, 2.99 µM.

In the case of `O=C1CCC2(CCC(=O)NC2=O)C(=O)N1`, the TGI in the assay on A549 NSCLC, with HCT-15 colon, in the assay with HL-60(TB) leukemia, with HOP-62 NSCLC, in the assay on KM12 colon and in the assay with NCI-H460 lung was more than 100 µM throughout. The TGI in the assay on SF-539 CNS, in the assay with SK-MEL-28 melanoma and in the assay with SK-OV-3 ovarian was more than 100 µM in each case.

In the case of `O=C(OCc1ccccc1CN1CCOCC1)c1ccc(Br)cc1`, the TGI with A498 renal, in the assay on A549 NSCLC, with HCT-15 colon, in the assay on HOP-62 NSCLC, with NCI-H460 lung and with SF-539 CNS was more than 100 µM in each case. Moreover, the TGI in the assay with SK-MEL-28 melanoma and in the assay on SK-OV-3 ovarian was more than 100 µM each time.

On to `CCN(CC)CCOc1ccc(/C=C2\C[C@H]3[C@@H]4CC=C5C[C@@H](OC(C)=O)CC[C@]5(C)[C@H]4CC[C@]3(C)[C@H]2OC(C)=O)cc1OC`, for which the GI50 in the assay with A549 NSCLC is 9.86 µM; in the assay with HCT-15 colon it was 7.38 µM; in the assay with HL-60(TB) leukemia, 9.57 µM; in the assay on HOP-62 NSCLC it was 10.1 µM; with KM12 colon it was 9.65 µM; in the assay on NCI-H460 lung, 7.6 µM. Moreover, the GI50 was 8.59 µM in the assay with SF-539 CNS and 12.4 µM in the assay on SK-MEL-28 melanoma. Further, the TGI in the assay with A549 NSCLC is 19.6 µM; in the assay with HCT-15 colon, more than 50 µM; in the assay on HL-60(TB) leukemia it was 19.5 µM; with HOP-62 NSCLC, 19.5 µM; in the assay with KM12 colon it was 21.4 µM; in the assay with NCI-H460 lung it was 34.6 µM. The TGI was 16 µM with SF-539 CNS and more than 50 µM in the assay on SK-MEL-28 melanoma.

Take `CC[C@@]1(OC(=O)CN)C(=O)OCc2c1cc1n(c2=O)Cc2cc3cc(N)ccc3nc2-1`: the GI50 in the assay on A498 renal was 0.0322 µM; in the assay with A549 NSCLC it was less than 0.0176 µM; with HCT-15 colon, 0.153 µM; in the assay with HOP-62 NSCLC it was less than 0.01 µM; with KM12 colon it was 0.12 µM; in the assay on NCI-H460 lung it was less than 0.01 µM. Also, the figures for the GI50 in the assay with SF-539 CNS and with SK-MEL-28 melanoma were less than 0.01 µM and 0.753 µM, respectively. Moreover, the TGI was 0.337 µM with A498 renal; 1.45 µM in the assay with A549 NSCLC; more than 20.3 µM with HCT-15 colon; 0.847 µM with HOP-62 NSCLC; 0.811 µM in the assay with KM12 colon; 0.0126 µM in the assay with SF-539 CNS. The compound further had a TGI with SK-MEL-28 melanoma of more than 100 µM.
